In experiment [1] the target is T1, CrkL SH2 domain (Homo sapiens, UniProt P46109). Nature of the experiment: SPOT peptide array. Type of experiment: binding. Conditions: spot intensity as factor of array mean; GST-SH2 0.25 μM. The source says:
(§1) The use of addressable peptide arrays is a reproducible and semi-quantitative approach that has been extensively validated for studying protein interactions with peptide ligands. To investigate connections between SH2 domain proteins and their putative phosphorylated docking sites on cell surface receptors, we developed addressable arrays consisting of 192 phosphotyrosine peptides. This peptide set was assembled using 71 phosphotyrosine peptide motifs corresponding to all of the cytoplasmic tyrosine residues within the FGF receptors (FGFR1-4), insulin receptor (InsR) and IGF-1 receptor (IGF-1R) (Figure 1A). Activation of these receptors results in the phosphorylation of associated scaffold proteins, and so 75 phosphotyrosine peptides corresponding to a comprehensive list of tyrosine residues within insulin receptor substrates (IRS-1 and IRS-2) and fibroblast receptor substrates (FRS-2 and FRS-3) were included. In addition, 33 phosphotyrosine peptides were incorporated from the downstream signaling proteins PLC-γ1, p130Cas (BCAR1) and p62DOK1. […] These control peptides provide a reference and establish the empirical cut-off for designated binding interactions (Table 1). No discrimination was made against peptides on the basis of reported phosphorylation state in order to examine a diverse and unbiased set of motifs. The resulting set of 192 phosphotyrosine peptides and their corresponding position in the proteins of origin is noted in Additional file 1: Table S1. Addressable arrays were synthesized as membrane-bound 11-mer peptides using the SPOT synthesis technique. While the majority of SH2 domains recognize residues C-terminal to the phosphotyrosine in their cognate peptide ligands, additional contacts between SH2 domains and residues N-terminal to the phosphotyrosine are observed for the SH2 domain of Sh2d1a (SAP) and cannot be ruled out in other cases. Peptides were synthesized with six flanking residues C-terminal to the phosphotyrosine and four residues N-terminal to the phosphotyrosine.
(§2) SH2 domains were arrayed as GST fusion proteins and detected using anti-GST primary antibodies and near-infrared labeled secondary antibodies. In an effort to present a dataset with minimal false positives, we chose an empirical cutoff based on the array average across all peptide spots to classify interactions (Figure 1A). In cases where the intensity of the signal for an individual SH2-domain binding event exceeded the mean intensity of all the peptides on the membrane by three-fold were scored as “array positives” [22]. Non-binding was judged in cases where the intensity of a spot was less than the mean intensity of all spots on the membrane and these were scored as “array negatives”. Peptides with signal intensities between 1X and 3X mean were scored as “indeterminate” and ascribed as neither array positive binding interactions nor array-negative non-binders. […] This signature may be indicative of promiscuity differences between phosphopeptides or there may be a subset of peptides which interact in a nonspecific fashion with either the GST fusion tag or one of the antibodies used for detection, resulting in false positives. Consistent with our goal of reducing the errors associated with identifying false-positives, we probed three separate arrays with three separate preps of the GST fusion tag alone. Potentially non-specificly interacting peptides (so-called ‘sticky’ peptides) were identified as any that bound to GST with above mean intensity in two out of three separate trials. This approach identifies any peptides which interact with GST or either of the recognition antibodies, a known confounding factor for downstream analysis. This conservative approach allows us to score many significant peptides as ‘binders’ which may have been indeterminate before when incorporating the ‘sticky’ peptides into the array average. […]

In experiment [2] the target is T2, Abl2 SH2 domain (Homo sapiens, UniProt P42684).
T2 sequence (P42684 173-263 limits assumed): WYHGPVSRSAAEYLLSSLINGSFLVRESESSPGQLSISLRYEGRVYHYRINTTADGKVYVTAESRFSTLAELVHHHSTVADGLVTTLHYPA
Nature of the experiment: SPOT peptide array. Type of experiment: binding. The following applies: spot intensity as factor of array mean; GST-SH2 0.25 μM.
Excerpt: as §1, §2

For the next experiment, the target named is Crk SH2 domain (Homo sapiens, UniProt P46108). Nature of the experiment: SPOT peptide array. Type of experiment: binding. The following applies: spot intensity as factor of array mean; GST-SH2 0.25 μM.
Excerpt: as §1, §2

The test system of another experiment is Plcγ-N SH2 domain. As to the kind of experiment: SPOT peptide array. Type of experiment: binding. Conditions: spot intensity as factor of array mean; GST-SH2 0.25 μM.
Excerpt: as §1, §2

Another experiment relates to Plcγ-C SH2 domain. As to the kind of experiment: SPOT peptide array. The format is binding. Conditions: spot intensity as factor of array mean; GST-SH2 0.25 μM.
Excerpt: as §1, §2

In experiment [3] the test system is Plcγ SH2 domain (N or C not specified). Nature of the experiment: SPOT peptide array. The format is binding. Conditions: GST-SH2 0.25 μM, membrane-bound peptide, 1 mM DTT, LiCor read-out.
Excerpt: as §1, §2

A further experiment addresses Shb SH2 domain (Homo sapiens, UniProt Q15464). As to the kind of experiment: SPOT peptide array. The format is binding. The following applies: GST-SH2 0.25 μM.
Excerpt: as §1, §2

The next experiment concerns the target Sh2b SH2 domain (Homo sapiens, UniProt Q9NRF2). As to the kind of experiment: SPOT peptide array. Conditions: GST-SH2 0.25 μM. The format is binding.
Excerpt: as §1, §2

The next experiment deals with Grb2 SH2 domain (Homo sapiens, UniProt P62993). Further details: method as in earlier work. The following applies: SH2 protein microarray; N.B. = non binding; read-out: Protein Microarray (Macbeath) – KD; cited from earlier work.
Experiment [4] addresses T2, Abl2 SH2 domain. Further details: method as in earlier work. The following applies: SH2 protein microarray; N.B. = non binding; read-out: Protein Microarray (Macbeath) – KD; cited from earlier work.
In another experiment the test system is panel of 50 SH2 domains. As to the kind of experiment: SPOT peptide array probed with each of 50 GST-SH2 domains. Type of experiment: binding. The following applies: SH2 domains with intensity >3X array mean; GST-SH2 0.25 μM, 1 mM DTT. Summed up: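 Membrane SPOT arrays of 192 phosphotyrosine 11-mer peptides (four residues N-terminal, six C-terminal to pTyr) probed with GST-SH2 fusions, detected by anti-GST plus near-infrared secondary antibody. Spots >3-fold array mean scored positive, below mean negative, 1–3× indeterminate; peptides binding GST alone above mean in two of three trials flagged as sticky.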

A further experiment deals with Nck1 SH2 domain (Homo sapiens, UniProt P16333). As to the kind of experiment: SPOT peptide array. The following applies: GST-SH2 0.25 μM, membrane-bound peptide, 1 mM DTT, LiCor read-out. The format is binding.
Excerpt: as §1, §2

Another experiment deals with T3, Abl1 SH2 domain (Homo sapiens, UniProt P00519).
T3 sequence (P00519 127-217 limits assumed): T2 sequence (P42684 173-263 limits assumed) with S9N, L18G, L35R, T53A, A54S, V58L, T61S, A62S, S67N, V84I
As to the kind of experiment: SPOT peptide array. Type of experiment: binding. The following applies: GST-SH2 0.25 μM, membrane-bound peptide, 1 mM DTT, LiCor read-out.
Excerpt: as §1, §2

Another experiment deals with Ptpn11_C SH2 domain. As to the kind of experiment: SPOT peptide array. The following applies: GST-SH2 0.25 μM. Type of experiment: binding.
Excerpt: as §1, §2

In another experiment the test system is Fyn SH2 domain. Nature of the experiment: SPOT peptide array. Type of experiment: binding. The following applies: GST-SH2 0.25 μM.
Excerpt: as §1, §2

The next experiment has as its target T4, Ptpn11_N SH2 domain (Homo sapiens, UniProt Q06124).
T4 sequence (Q06124 6-102 limits assumed): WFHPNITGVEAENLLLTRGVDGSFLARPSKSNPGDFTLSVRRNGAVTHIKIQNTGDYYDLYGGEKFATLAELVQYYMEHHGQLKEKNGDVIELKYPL
Nature of the experiment: SPOT peptide array. Type of experiment: binding. Conditions: GST-SH2 0.25 μM.
Excerpt: as §1, §2

For experiment [5], the target named is T1, CrkL SH2 domain. As to the kind of experiment: Fluorescence polarization solution binding. Conditions: Rhodamine B-labeled peptide, GST-SH2, Beacon 2000, read-out: Affinity (KD). The source says: To verify the binding results obtained from addressable peptide arrays we employed an orthogonal method of determining SH2 interactions with peptide ligands. We measured the dissociation constants of 60 binary SH2-peptide pairs in solution by fluorescence polarization (Table 2, Additional file 2: Figures S3A-C).
Peptides were synthesized using FMOC-chemistry onto pre-loaded tenta-gel resins. Peptides were then labeled with Rhodamine B (Abbey Color) and then cleaved using trifluoroacetic acid. Peptides were lyophilized and then purified using a LC/MS (Agilent 2100). Dissociation constants were measured using the Beacon 2000 (Invitrogen) as previously described.
Binding Affinities determined by Fluorescence Polarization. Rhodamine B-labeled peptides were mixed with varying concentrations of GST-tagged SH2 domains. Fluorescence polarization measurements were read on a Beacon 2000 (Invitrogen). The curves were fit to a Michaelis-Menten equation to calculate the dissociation constant, KD. […] (C) Affinity measurements that fell below the 2X mean intensity and were considered array negative on the SPOT array.

[6] abbreviates: membrane-bound peptide, 1 mM DTT, LiCor read-out.
Setting [7] is: spot intensity as factor of array mean.

The text below walks through data of PMC3514216, “SRC Homology 2 Domain Binding Sites in Insulin, IGF-1 and FGF receptor mediated signaling networks reveal an extensive potential interactome” (Cell Communication and Signaling : CCS, 2012).

Positions count from the first letter of the chain named.

T1 sequence (P46109 14-102 limits assumed): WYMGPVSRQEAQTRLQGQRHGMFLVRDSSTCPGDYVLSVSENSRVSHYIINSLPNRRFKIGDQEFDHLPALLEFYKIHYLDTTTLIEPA
Sequence of Shb SH2 domain (Q15464 410-504 limits assumed): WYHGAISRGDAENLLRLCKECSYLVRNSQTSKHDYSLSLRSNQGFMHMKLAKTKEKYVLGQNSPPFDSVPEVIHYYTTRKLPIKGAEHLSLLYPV
Sequence of Grb2 SH2 domain (P62993 60-152 limits assumed): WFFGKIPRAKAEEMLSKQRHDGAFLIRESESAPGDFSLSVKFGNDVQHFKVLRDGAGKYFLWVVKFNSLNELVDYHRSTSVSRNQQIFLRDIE
Sequence of Crk SH2 domain (P46108 13-118 limits assumed): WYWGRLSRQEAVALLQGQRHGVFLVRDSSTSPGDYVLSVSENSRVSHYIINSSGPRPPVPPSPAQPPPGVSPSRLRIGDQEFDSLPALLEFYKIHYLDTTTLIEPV

Take SSKDLVSCApYQVARGMED: the “Peptide array intensity (X mean)” value on CrkL SH2 domain [1], at Abl2 SH2 domain [2] and at Crk SH2 domain was below 2x X Mean each time.
Take “SNQEpYLDLSMP [11-mer phosphotyrosine peptide, FGFR1 (Y766)]”: the “Peptide array intensity (X mean)” value with Plcγ-N SH2 domain was 0.52 X Mean; in the experiment on Plcγ-C SH2 domain it was 0.21 X Mean; on Shb SH2 domain (setting [7]), 0.45 X Mean. Also, the Array positive result (in experiment [3]; on Shb SH2 domain (setting [6])) was “No (Peptide spots with average intensity values between 1X-3X the array mean were defined as ‘indeterminate’. Those with intensities below 1X mean were defined as array negative)” throughout.
“THDLYMIMREA [11-mer peptide, FGFR3 (Y724)]”: the Array positive entry at Sh2b SH2 domain (setting [6]) is “No (Peptide spots with average intensity values between 1X-3X the array mean were defined as ‘indeterminate’. Those with intensities below 1X mean were defined as array negative)”. Also, the “Peptide array intensity (X mean)” value at Sh2b SH2 domain (setting [7]) was 0.44 X Mean.
A word on the Kd: it is the constant that tells how readily two partners part at equilibrium. Regarding “EIFTLGGSPpYPGVPVEED (EIFTLGGSPYPGVPVEED)”, the Kd with Grb2 SH2 domain was 0.14 µM; with Abl2 SH2 domain [4] it was 0.4 µM.
With “VSEEYLDLRLT [11-mer peptide, FGFR4 (754)]”, the Array positive result in [3] is reported as “No (Peptide spots with average intensity values between 1X-3X the array mean were defined as ‘indeterminate’. Those with intensities below 1X mean were defined as array negative)”. In addition, in the experiment on panel of 50 SH2 domains, the “Other SH2 domains bound (additional array-positive SH2 domains)” value is reported as “SHD”.
As to “EDPIpYDEPEGL [11-mer phosphotyrosine peptide, p62DOK1 (Y362)]”, the Array positive result at Nck1 SH2 domain and on Abl1 SH2 domain was “Yes (Array-positive binding was ascribed to interactions with intensities greater than three times the array mean)” in each case. Further, the “Other SH2 domains bound (additional array-positive SH2 domains)” value in the experiment with panel of 50 SH2 domains is reported as “Blk, Hck, Lck, Lyn, Shc1, Src”.
For the molecule “DLSApYASISFQ [11-mer phosphotyrosine peptide, IRS-1 (Y1229)]”, the Array positive result with Ptpn11_C SH2 domain (setting [6]), with Fyn SH2 domain (setting [6]) and on Ptpn11_N SH2 domain (setting [6]) was “No (Peptide spots with average intensity values between 1X-3X the array mean were defined as ‘indeterminate’. Those with intensities below 1X mean were defined as array negative)” in each case. For the same molecule, the “Peptide array intensity (X mean)” value in the experiment with Ptpn11_C SH2 domain (setting [7]) is given as 1.59 X Mean; in the experiment on Fyn SH2 domain (setting [7]), 0.48 X Mean; at Ptpn11_N SH2 domain (setting [7]) it was 2.78 X Mean.
Regarding `CC(C)C[C@H](NC(=O)[C@H](CCC(=O)O)NC(=O)[C@H](Cc1ccc(OP(=O)(O)O)cc1)NC(=O)[C@H](CCC(=O)O)NC(=O)[C@H](CO)NC(=O)[C@@H](NC(=O)CN)C(C)C)C(=O)N1CCC[C@H]1C(=O)N[C@@H](CCC(=O)O)C(=O)N[C@@H](CC(=O)O)C(=O)N1CCC[C@H]1C(=O)O` [GVSEpYELPEDP], the equilibrium dissociation constant (Kd) at CrkL SH2 domain [5] is above 50 µM.
